Data on 28 compounds can be found in patent US8916551B2, “Heterocyclic compound and use thereof” (Takeda Pharmaceutical Company Limited, priority 2010, dated 2014).

In data set [1] the target is T1, AMPA receptor (human GluR1 flip/stargazin expressed in CHO-K1 cells) (Homo sapiens, UniProt P42261).
T1 construct: expressed in transfected cells; host or cells: CHO-K1
The data set can be described thus: AMPA receptor function enhancing activity using calcium influx as index. It is filed as cell-based. The following applies: 100% = 3 mM glutamic acid + 300 μM cyclothiazide, 0% = 3 mM glutamic acid only. The procedure, abridged:
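CHO-K1 clone stably co-expressing human GluR1 flip and stargazin, loaded with Calcium 4 dye plus probenecid. Compound at 30 μM was added with glutamate (3 mM final) and fluorescence change followed over 3 min. Activity is expressed as % of the 3 mM glutamate plus 300 μM cyclothiazide response, with glutamate alone as 0%.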

[2] abbreviates: test compound 30 μM with glutamic acid final 3 mM, change in fluorescence in 3 min.
[3] abbreviates: test compound 30 μM with 3 mM glutamic acid, change in fluorescence level in 3 min.

T1 sequence (P42261 19-906 isoform P42261-2 limits assumed): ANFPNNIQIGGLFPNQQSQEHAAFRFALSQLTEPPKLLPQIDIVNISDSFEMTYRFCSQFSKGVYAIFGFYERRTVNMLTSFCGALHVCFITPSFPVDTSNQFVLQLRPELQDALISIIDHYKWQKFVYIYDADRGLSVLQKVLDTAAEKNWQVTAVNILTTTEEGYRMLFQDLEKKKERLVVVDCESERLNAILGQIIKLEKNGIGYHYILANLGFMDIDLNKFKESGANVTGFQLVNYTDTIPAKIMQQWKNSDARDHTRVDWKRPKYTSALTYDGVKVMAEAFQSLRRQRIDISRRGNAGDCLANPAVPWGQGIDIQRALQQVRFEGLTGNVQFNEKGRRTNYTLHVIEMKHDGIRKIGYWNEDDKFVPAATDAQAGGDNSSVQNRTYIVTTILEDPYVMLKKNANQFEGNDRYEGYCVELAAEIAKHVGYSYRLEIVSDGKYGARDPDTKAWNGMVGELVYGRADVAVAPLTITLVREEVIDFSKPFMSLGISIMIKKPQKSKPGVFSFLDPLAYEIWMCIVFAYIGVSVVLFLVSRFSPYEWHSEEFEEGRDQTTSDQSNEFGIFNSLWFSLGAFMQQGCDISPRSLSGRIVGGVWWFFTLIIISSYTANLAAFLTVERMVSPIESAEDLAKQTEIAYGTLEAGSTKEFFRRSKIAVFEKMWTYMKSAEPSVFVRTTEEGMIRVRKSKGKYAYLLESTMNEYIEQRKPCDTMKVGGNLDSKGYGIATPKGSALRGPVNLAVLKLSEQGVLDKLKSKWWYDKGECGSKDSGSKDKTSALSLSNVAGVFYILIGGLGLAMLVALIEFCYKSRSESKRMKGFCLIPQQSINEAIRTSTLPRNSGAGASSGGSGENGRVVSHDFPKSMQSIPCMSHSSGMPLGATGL
T1 sequence (Q9Y698 whole entry partner): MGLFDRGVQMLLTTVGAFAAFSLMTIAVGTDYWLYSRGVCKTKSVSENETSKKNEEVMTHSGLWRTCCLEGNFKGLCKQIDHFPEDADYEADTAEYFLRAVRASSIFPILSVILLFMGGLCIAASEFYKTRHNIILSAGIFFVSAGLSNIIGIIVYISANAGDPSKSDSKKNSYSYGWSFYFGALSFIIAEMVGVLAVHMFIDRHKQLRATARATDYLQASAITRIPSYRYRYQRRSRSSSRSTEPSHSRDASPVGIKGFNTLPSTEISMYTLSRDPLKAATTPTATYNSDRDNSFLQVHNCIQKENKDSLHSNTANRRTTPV

What is called melting point is the temperature of the solid-liquid transition. `O=S1(=O)CCN2C=C(Cl)C=C(c3ccc(Oc4ccnc(C(F)(F)F)c4)cc3)C2=N1` [Example 79, 7-chloro-9-(4-{[2-(trifluoromethyl)pyridin-4-yl]oxy}phenyl)-3,4-dihydropyrido[2,1-c][1,2,4]thiadiazine 2,2-dioxide] had a melting point of 239 to 240 °C. Moreover, in data set [1] (setting [2]), the “activity (%)” value worked out at 90%.

On to `O=S1(=O)CCN2C=C(Cl)C=C(c3ccc(Oc4ccccc4)cc3)C2=N1` [Example 81, 7-chloro-9-(4-phenoxyphenyl)-3,4-dihydropyrido[2,1-c][1,2,4]thiadiazine 2,2-dioxide], for which the melting point was 248 to 249 °C. The “activity (%)” value in data set [1] (setting [2]) is listed as 86%.

As for `Cc1ccc(Oc2ccc(C3=CC=CN4CCS(=O)(=O)N=C34)cc2)cc1` [Example 107, 9-[4-(4-methylphenoxy)phenyl]-3,4-dihydropyrido[2,1-c][1,2,4]thiadiazine 2,2-dioxide], the melting point was in the range of 248 to 249 °C. Further, the “activity (%)” value in data set [1] (setting [2]) is 69%.

Regarding `O=S1(=O)CCN2CCCC(c3ccc(Oc4ccc(C(F)(F)F)cc4)cc3)C2=N1` (centres unmarked) [Example 125, 9-{4-[4-(trifluoromethyl)phenoxy]phenyl}-3,4,6,7,8,9-hexahydropyrido[2,1-c][1,2,4]thiadiazine 2,2-dioxide], the melting point was 191 to 193 °C. Also, the “activity (%)” value in data set [1] (setting [2]) is 53%.

On to `Cc1ccc(C(F)(F)c2ccc(C3CCCN4CCS(=O)(=O)N=C34)cc2)cc1` (centres unmarked) [Example 137, 9-{4-[difluoro(4-methylphenyl)methyl]phenyl}-3,4,6,7,8,9-hexahydropyrido[2,1-c][1,2,4]thiadiazine 2,2-dioxide], for which the melting point was in the range of 190 to 191 °C. In addition, in data set [1] (setting [2]), the “activity (%)” value is listed as 61%.

`Cc1cc(F)ccc1Oc1ccc(C2=CC=CN3CCS(=O)(=O)N=C23)cc1` [Example 143, 9-[4-(4-fluoro-2-methylphenoxy)phenyl]-3,4-dihydropyrido[2,1-c][1,2,4]thiadiazine 2,2-dioxide] returned a melting point of 240 to 242 °C. Further, the “activity (%)” value in data set [1] (setting [3]) was 76%.

As for `O=S1(=O)CCN2C=CC=C(c3ccc(Oc4ccc(Cl)cc4)cc3)C2=N1` [Example 147, 9-[4-(4-chlorophenoxy)phenyl]-3,4-dihydropyrido[2,1-c][1,2,4]thiadiazine 2,2-dioxide], the melting point fell in the range of 232 to 234 °C. Also, in data set [1] (setting [3]), the “activity (%)” value came out at 70%.

Compound `O=S1(=O)CCN2CCCC(c3ccc(Oc4ccc(Cl)cc4)cc3)C2=N1` (centres unmarked) [Example 148, 9-[4-(4-chlorophenoxy)phenyl]-3,4,6,7,8,9-hexahydropyrido[2,1-c][1,2,4]thiadiazine 2,2-dioxide] gave a melting point of 215 to 216 °C. In addition, the “activity (%)” value in data set [1] (setting [3]) is listed as 73%.

Compound `O=S1(=O)CCN2CCCC(c3ccc(Oc4ccc(Cl)c(Cl)c4)cc3)C2=N1` (centres unmarked) [Example 151, 9-[4-(3,4-dichlorophenoxy)phenyl]-3,4,6,7,8,9-hexahydropyrido[2,1-c][1,2,4]thiadiazine 2,2-dioxide] showed a melting point of 195 to 197 °C. The “activity (%)” value in data set [1] (setting [3]) is 67%.

As to `CC(F)(F)c1cccc(Oc2ccc(C3CCCN4CCS(=O)(=O)N=C34)cc2)c1` (centres unmarked) [Example 157, 9-{4-[3-(1,1-difluoroethyl)phenoxy]phenyl}-3,4,6,7,8,9-hexahydropyrido[2,1-c][1,2,4]thiadiazine 2,2-dioxide], the melting point lay in the range of 117 to 118 °C. In data set [1] (setting [3]), the “activity (%)” value came to 89%.

In turn, `O=S1(=O)CCN2CCCC(c3ccc(C(F)(F)F)cc3)C2=N1` (centres unmarked) [Example 175, 9-[4-(trifluoromethyl)phenyl]-3,4,6,7,8,9-hexahydropyrido[2,1-c][1,2,4]thiadiazine 2,2-dioxide] returned a melting point of 226 to 227 °C. Moreover, in data set [1] (setting [3]), the “activity (%)” value came to 53%.

In the case of `O=S1(=O)CCN2C=CC=C(c3ccc(OC4CCCCC4)cc3)C2=N1` [Example 182, 9-[4-(cyclohexyloxy)phenyl]-3,4-dihydropyrido[2,1-c][1,2,4]thiadiazine 2,2-dioxide], the melting point was in the range of 272 to 274 °C. Also, the “activity (%)” value in data set [1] (setting [3]) was 80%.

In turn, `N#Cc1ccc(Oc2ccc(C3CCCN4CCS(=O)(=O)N=C34)cc2)cc1Cl` (centres unmarked) [Example 183, 2-chloro-4-[4-(2,2-dioxido-3,4,6,7,8,9-hexahydropyrido[2,1-c][1,2,4]thiadiazin-9-yl)phenoxy]benzonitrile] yielded a melting point of 219 to 220 °C. Besides, the “activity (%)” value in data set [1] (setting [3]) is 91%.

In turn, `O=S1(=O)CCN2C=CC=C(c3ccc(Oc4ccccc4)nc3)C2=N1` [Example 191, 9-(6-phenoxypyridin-3-yl)-3,4-dihydropyrido[2,1-c][1,2,4]thiadiazine 2,2-dioxide] yielded a melting point of 244 to 245 °C. Also, in data set [1] (setting [3]), the “activity (%)” value amounted to 74%.

`O=S1(=O)CCN2C=CC=C(c3ccc(Oc4ccc(O)cc4)cc3)C2=N1` [Example 198, 4-[4-(2,2-dioxido-3,4-dihydropyrido[2,1-c][1,2,4]thiadiazin-9-yl)phenoxy]phenol] had a melting point of 289 to 290 °C. Also, in data set [1] (setting [3]), the “activity (%)” value is 87%.

In turn, `O=S1(=O)CCN2C=CC=C(c3ccc(Oc4ccc(F)cc4)cc3)C2=N1` [Example 199, 9-[4-(4-fluorophenoxy)phenyl]-3,4-dihydropyrido[2,1-c][1,2,4]thiadiazine 2,2-dioxide] yielded a melting point of 266 to 267 °C. The “activity (%)” value in data set [1] (setting [3]) is recorded as 79%.

In turn, `O=S1(=O)CCN2CCCC(c3ccc(Oc4cccc(Cl)c4)cc3)C2=N1` (centres unmarked) [Example 201, 9-[4-(3-chlorophenoxy)phenyl]-3,4,6,7,8,9-hexahydropyrido[2,1-c][1,2,4]thiadiazine 2,2-dioxide] registered a melting point of 165 to 167 °C. In addition, the “activity (%)” value in data set [1] (setting [3]) came out at 74%.

Take `COC1=C(c2ccc(Oc3ccccc3)cc2)C2=NS(=O)(=O)CCN2C=C1` [Example 204, 8-methoxy-9-(4-phenoxyphenyl)-3,4-dihydropyrido[2,1-c][1,2,4]thiadiazine 2,2-dioxide]: the melting point lay within 269 to 270 °C. In data set [1] (setting [3]), the “activity (%)” value amounted to 70%.

`O=S1(=O)CCN2C=CC(Cl)=C(c3ccc(Oc4ccccc4)cc3)C2=N1` [Example 205, 8-chloro-9-(4-phenoxyphenyl)-3,4-dihydropyrido[2,1-c][1,2,4]thiadiazine 2,2-dioxide] came in with a melting point of 283 to 284 °C. Also, the “activity (%)” value in data set [1] (setting [3]) is listed as 67%.

`O=S1(=O)CCN2C=C(F)C=C(c3ccc(Oc4ccccc4)cc3)C2=N1` [Example 206, 7-fluoro-9-(4-phenoxyphenyl)-3,4-dihydropyrido[2,1-c][1,2,4]thiadiazine 2,2-dioxide]: the melting point lay in the range of 91.9 to 92 °C. For the same compound, the “activity (%)” value in data set [1] (setting [3]) is reported as 84%.

The compound `CC1=CN2CCS(=O)(=O)N=C2C(c2ccc(Oc3ccccc3)cc2)=N1` [Example 207, 7-methyl-9-(4-phenoxyphenyl)-3,4-dihydropyrazino[2,1-c][1,2,4]thiadiazine 2,2-dioxide] returned a melting point of 92 to 92.5 °C. Besides, the “activity (%)” value in data set [1] (setting [3]) is on record as 78%.

With `CC(C)Oc1ccc(C2=CC=CN3CCS(=O)(=O)N=C23)cc1Cl` [Example 208, 9-[3-chloro-4-(1-methylethoxy)phenyl]-3,4-dihydropyrido[2,1-c][1,2,4]thiadiazine 2,2-dioxide], the melting point fell in the range of 239 to 240 °C. Besides, in data set [1] (setting [3]), the “activity (%)” value amounted to 79%.

For the compound `Cc1ccc(Oc2ccc([C@@H]3CCCN4CCS(=O)(=O)N=C34)cc2)cc1C` [Example 216, (9S)-9-[4-(3,4-dimethylphenoxy)phenyl]-3,4,6,7,8,9-hexahydropyrido[2,1-c][1,2,4]thiadiazine 2,2-dioxide], the melting point lay within 170 to 171 °C. Further, the “activity (%)” value in data set [1] (setting [3]) turned out to be 71%.

As to `CCc1ccc(Oc2ccc([C@@H]3CCCN4CCS(=O)(=O)N=C34)cc2)cc1` [Example 218, (9S)-9-[4-(4-ethylphenoxy)phenyl]-3,4,6,7,8,9-hexahydropyrido[2,1-c][1,2,4]thiadiazine 2,2-dioxide], the melting point was 156 to 157 °C. Moreover, the “activity (%)” value in data set [1] (setting [3]) was 74%.

For the compound `COc1cccc(Oc2ccc([C@@H]3CCCN4CCS(=O)(=O)N=C34)cc2)c1` [Example 219, (9S)-9-[4-(3-methoxyphenoxy)phenyl]-3,4,6,7,8,9-hexahydropyrido[2,1-c][1,2,4]thiadiazine 2,2-dioxide], the melting point was in the range of 139 to 140 °C. In addition, the “activity (%)” value in data set [1] (setting [3]) is listed as 83%.

For the compound `O=S1(=O)CCN2CCC[C@@H](c3ccc(Oc4cc(F)c(F)c(F)c4)cc3)C2=N1` [Example 227, (9S)-9-[4-(3,4,5-trifluorophenoxy)phenyl]-3,4,6,7,8,9-hexahydropyrido[2,1-c][1,2,4]thiadiazine 2,2-dioxide], the melting point lay in the range of 180 to 181 °C. Also, the “activity (%)” value in data set [1] (setting [3]) worked out at 68%.

`O=S1(=O)CCN2CCCC(c3ccc(Oc4ccc(C(F)(F)F)cc4)cc3)C2=N1` (centres unmarked) [Example 232, 9-{4-[4-(trifluoromethyl)phenoxy]phenyl}-3,4,6,7,8,9-hexahydropyrido[2,1-c][1,2,4]thiadiazine 2,2-dioxide] registered a melting point of 174 to 176 °C. For the same compound, the “activity (%)” value in data set [1] (setting [3]) turned out to be 60%.

The compound `Cc1cc(F)cc(Oc2ccc([C@@H]3CCCN4CCS(=O)(=O)N=C34)cc2)c1` [Example 236, (9S)-9-[4-(3-fluoro-5-methylphenoxy)phenyl]-3,4,6,7,8,9-hexahydropyrido[2,1-c][1,2,4]thiadiazine 2,2-dioxide] had a melting point of 158 to 159 °C. In data set [1] (setting [3]), the “activity (%)” value amounted to 74%.
